Tested on: HCT116 cell lines
Assay: IC50 and cell viability assay of clinical drugs (CCK-8)
Format: cell-based, human
Conditions: triplicate, mean ± SD, Resistance = drug does not affect cell viability
Procedure: All the mediums were purchased from […].
To determine suitable cell seeding number for each cell line, different number (300, 500, 1000, 3000) of cells/wells were seeded in a 96-well plate. A cell viability was determined using a real-time viability assay (RealTime-Glo™ Assay Reagent). Luminescence intensities were measured at different time points (4, 8, 16, 24, 36, 48, 60 and 72 hours) to evaluate a cell growth curve. To establish IC50 values of ten drugs on each cell line, gradient concentrations of each drug were prepared. […] The cell viability was measured with Cell Counting Kit 8 (e.g., CCK-8 purchased from Dojindo molecular technologies, Japan), and cell viability assay was performed after 2 hours of incubation by measuring the absorbances at 450 nm. Relative cell numbers were determined as compared with the control cells. All experiments were performed in triplicate manner, and data were represented as expressed as mean±standard deviation (mean±SD).

[1] = Homo sapiens, HCT-116, CCK-8, absorbance 450 nm

Row | Compound | IC50 (μM) ± SD (CCK-8, absorbance 450 nm) | IC50 [1] | also measured
1 | Nc1nc(=O)c2c([nH]1)NCC(CNc1ccc(C(=O)N[C@@H](CCC(=O)O)C(=O)O)cc1)N2C=O (mixture of isomers) [Folinic acid (F), Folinic acid] | Resistance |  | 
2 | O=c1[nH]cc(F)c(=O)[nH]1 [5-FU (U), 5-Fluorouracil] |  | 8.56 ± 0.897 µM | 
3 | Nc1ccn([C@@H]2O[C@H](CO)[C@@H](O)C2(F)F)c(=O)n1 [Gemcitabine (G), Gemcitabine] |  | 0.183 µM | 
4 | O=C1[O][Pt]2([NH][C@@H]3CCCC[C@H]3[NH]2)[O]C1=O [Oxaliplatin (O), Oxaliplatin] |  |  | IC50 (CCK-8, absorbance 450 nm): 10.3 ± 3.27 µM
5 | Bevacizumab [Bevacizumab (B)] | Resistance |  | 

The next lines start with results.

Row | IC50 (μM) ± SD (CCK-8, absorbance 450 nm) | IC50 [1] | Compound | also measured
6 |  | 0.01 ± 0.03 µM | CCc1c2c(nc3ccc(OC(=O)N4CCC(N5CCCCC5)CC4)cc13)-c1cc3c(c(=O)n1C2)COC(=O)[C@]3(O)CC [Irinotecan (I), Irinotecan] | 
7 |  | 28.5 ± 0.802 µM | COc1cc2nccc(Oc3ccc(NC(=O)NC4CC4)c(Cl)c3)c2cc1C(N)=O [Lenvatinib (L), Lenvatinib] | 
8 |  | 5.89 ± 0.713 µM | CNC(=O)c1cc(Oc2ccc(NC(=O)Nc3ccc(Cl)c(C(F)(F)F)c3)c(F)c2)ccn1 [Regorafenib (R), Regorafenib] | 
9 | Resistance |  | Panitumumab [Panitumumab (P)] | 

— patent US20240207237A1, “METHOD OF SCREENING FOR DRUG COMBINATION FOR COLORECTAL CARCINOMA TREATMENT, DRUG COMBINATION AND USE THEREOF” (National Tsing Hua University, priority 2022, published 2024)
